Measured values taken from patent publication US20090170803A1, “[…] OF […]” (priority 2002, published 2009).
Entries after “also recorded” stand apart in the source; their conditions may differ.

What was measured:
[1] = system: RANTES; design: species or system C57BL/6 mice; details: mouse, in vivo
[2] = system: IL-6; design: species or system C57BL/6 mice; details: mouse, in vivo, ip
[3] = system: human monocytes; experiment: Inhibition of LPS-stimulated human monocyte TNF production; assay type: cell-based
[4] = system: A2A-KO mice; experiment: Murine septic shock model in A2A-KO mice; assay type: in vivo; details: 5 μg/kg, four doses at six hour intervals beginning 12 hours after LPS 12.5 mg/kg
[5] = system: C57BL/6 mice; experiment: Murine model of endotoxin-induced septic shock (E. coli 026:B6 LPS), mortality; assay type: in vivo; design: protection of mice from E. Coli 026:B6 LPS-induced endotoxemia, dose response (FIG. 1): dose or concentration left out as unconfirmed
[6] = system: E. Coli; experiment: Mice injected with live E. Coli and treated with ceftriaxone, survival; assay type: in vivo; details: 20 million E. Coli IP at time 0; ceftriaxone once at time 0; 50 μg/kg ATL146e 8 times at 6 hour intervals
[7] = system: human PMNL; experiment: Preliminary in vitro studies: effects of A2AAR agonists on phagocytic cells (human PMNL); assay type: cell-based
[8] = system: neutrophils in kidneys; design: species or system C57BL/6 mice; details: mouse, in vivo, ip

For `CCNC(=O)[C@H]1O[C@@H](n2cnc3c(N)nc(C#CCC4CCC(C(=O)OC)CC4)nc32)C(O)C1O` (stereo in doubt) [ATL146e, 4-{3-[6-Amino-9-(5-ethylcarbamoyl-3,4-dihydroxy-tetrahydro-furan-2-yl)-9H-purin-2-yl]-prop-2-ynyl}cyclohexanecarboxylic acid methyl ester], the “chemokine Renal RANTES in kidney samples (FIG. 8)” value [1] was “reduction”, the “renal IL-6 levels, relative to those from mice exposed to LPS/Stx2 (FIG. 7)” value [2] was “approximately 16%” and the “inhibition of LPS-stimulated human monocyte TNF production, potency comparison” value [3] was “more potent than CGS21680”. The “protective effect in A2A-KO mice relative to wild type” value [4] was “less protection; also recorded: completely lost”, the “protection from death (FIG. 2)” value ([5]; 5 μg/kg i.p. at 6-hour intervals for 24 hours beginning simultaneously with LPS 12.5 mg/kg, p=0.0002) was “protection from death” and the “protection from death after a delay in the onset of therapy (FIG. 3)” value ([5]; 5 μg/kg i.p. at six hour intervals, four doses, delay of 24 hours following LPS challenge (12.5 mg/kg)) was “protection from death”. For the same molecule, the “protection of mice from E. Coli 026:B6 LPS-induced endotoxemia, dose response (FIG. 1)” value ([5]; IP one hour prior to LPS and at 6 hour intervals, 8 doses/48 hours) was “dose dependent response”, the “protection at the highest dosages” value ([5]; highest dosages, LPS 12.5 mg/kg) was “complete protection” and the “survival at 4 days” value ([5]; highest doses, vehicle mortality 75%) was 100%. For the same molecule, the “survival of mice injected with live E. Coli and treated with ceftriaxone, compared to antibiotic alone (FIG. 6)” value [6] was “increases survival” and the “effects on phagocytic cells in vitro and in animal models of acute inflammation” value [7] was “potent agonists and provide anti-inflammatory responses”.

With `CCNC(=O)[C@H]1O[C@@H](n2cnc3c(N)nc(C#CCC4CCC(COC(C)=O)CC4)nc32)C(O)C1O` (stereo in doubt) [ATL193, Acetic acid 4-{3-[6-amino-9-(5-ethylcarbamoyl-3,4-dihydroxytetrahydrofuran-2-yl)-9H-purin-2-yl]-prop-2-ynyl}-cyclohexylmethyl Ester] the “effects on phagocytic cells in vitro and in animal models of acute inflammation” value [7] was “potent agonists and provide anti-inflammatory responses”.

In the case of `CCNC(=O)[C@H]1O[C@@H](n2cnc3c(N)nc(C#C[C@]4(O)CCC[C@@H](C)C4)nc32)C(O)C1O` (stereo in doubt) [ATL-203, 5-[6-Amino-2-(1-hydroxy-3-methylcyclohexylethynyl)purin-9-yl]-3,4-dihydroxytetrahydrofuran-2-carboxylic acid ethylamide], the “chemokine Renal RANTES in kidney samples (FIG. 8)” value [1] is reported as “reduction”, the “renal IL-6 levels, relative to those from mice exposed to LPS/Stx2 (FIG. 7)” value [2] is reported as “approximately 16%” and the “neutrophil positive glomeruli, relative to the Stx2 positive samples (FIG. 9)” value [8] is reported as 40%.

With `Nc1nc(NCCc2ccc(O)cc2)nc2nc(-c3ccco3)nn12` [ZM241385, reference compound] the “reversal of the inhibition of monocyte TNF production by A2AAR antagonist” value ([3]; with ATL146e) was “reversed”, the “protective efficacy of ATL146e when ZM is co-administered (FIG. 4)” value ([5]; ZM in equimolar concentrations (3 μg/kg) with ATL146e, six hour intervals for 24 hours beginning 12 hours after LPS) was “nearly eliminated” and the “protection from death by antagonist alone (FIG. 4)” value ([5]; six hour intervals for 24 hours beginning 12 hours after LPS challenge) was “does not protect”. The “block by A2AAR antagonist of the agonist effect on TNF-stimulated superoxide release” value ([7]; adherent PMNLs, with A2AAR agonists) was “completely blocked”.

With Rolipram [reference compound] the “accentuation of the A2AAR agonist effects on activation of PMNLs” value ([7]; with A2AAR agonists) was “synergistically accentuates”.
